Assay results taken from ChEMBL document CHEMBL1201862, “PubChem BioAssay data set” (2004).
Calls of active or inactive are those of the source.

Legend:
[1] = target: NACHT, LRR and PYD domains-containing protein 3 (Homo sapiens, UniProt Q96P20); test: NALP3 inhibitors in yeast, dose response, luminescent (AID 488799); type: functional
[2] = mammalian cell cytotoxicity, dose response, cytotoxicity control, plate reader, cherry-pick samples (AID 504397); type: functional, cell-based
[3] = inhibitors of intracellular T. cruzi replication, confirmation, NIH3T3 host cells, beta-gal luminescence (AID 2044); type: functional, cell-based;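 also: intracellular parasites grown in NIH/3T3 mouse fibroblasts as host cells; luminescent beta-galactosidase reporter signal from transgenic T. cruzi replicating inside host cells; inhibitors lower the luminescence signal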
[4] = cytotoxicity toward NIH3T3 fibroblasts, dose response, counter-screen, cell-based, ATP luminescence, mouse fibroblasts (AID 2010); type: functional;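 also: cells exposed to compound for about 90 hours before reading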
[5] = target: Neurotensin receptor type 1 (Homo sapiens, UniProt P30989); type: functional;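 also: Image-based confirmatory dose-response assay measuring agonist activity at NTR1; NTR1-expressing U2OS osteosarcoma cells imaged for beta-arrestin GFP spot formation; agonist potency where compounds increase beta-arrestin recruitment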
[6] = microbe, parasite or virus in culture; type: functional; details: Mycobacterium tuberculosis
[7] = target: T1, Ubiquitin-conjugating enzyme E2 N (Homo sapiens, UniProt P61088); type: functional;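 also: Dose-response confirmation in a TR-FRET assay detecting UBC13-driven polyubiquitin chain formation, inhibition measured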
T1 sequence (P61088 whole entry): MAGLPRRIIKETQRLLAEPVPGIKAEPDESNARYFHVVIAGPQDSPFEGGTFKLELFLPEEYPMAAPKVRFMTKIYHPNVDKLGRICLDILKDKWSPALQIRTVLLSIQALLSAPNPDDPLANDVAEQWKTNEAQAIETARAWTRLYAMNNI

[8] = Luminescence Cell-Based Dose Retest to Confirm Inhibitors of Cancer Stem Cells. [Related pubchem assays (depositor defined):AID2717, AID2721]; type: functional; details: Homo sapiens
[9] = NIH-3T3 fibroblast cytotoxicity, dose response, cytotoxicity control, cell-based, fluorescence, Alamar Blue, secondary assay (AID 2327); type: functional;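 also: NIH-3T3 mouse fibroblasts cultured with fluconazole at 8 µg/mL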
INS1 = test: beta cell apoptosis inhibitors, cytokine rescue, dose response, luminescence, retest (AID 449756); type: functional, cell-based; details: Rattus norvegicus;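 also: cell death triggered by IL-1 beta plus TNF-alpha plus IFN-gamma mixture; protective hits raise ATP signal compared with cytokine alone wells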
[10] = C. albicans growth with fluconazole, confirmation, fluorescence, retest (AID 2467); type: functional, cell-based
Vero [11] = test: cells; type: functional, cell-based; details: Chlorocebus sabaeus
[12] = Vero E6 cell cytotoxicity, dose response, cytotoxicity control for non-replicating M. tuberculosis project, secondary assay (AID 492998); type: functional, VeroE6; details: Vero C1008
[13] = target: T2, Short transient receptor potential channel 4 (Mus musculus, UniProt Q9QUQ5); test: mouse TRPC4 channel activators, dose response, cell-based, HEK293 TRPC4/mu-opioid, Fluo-4 calcium (AID 434937); type: functional
T2 sequence (Q9QUQ5 whole entry): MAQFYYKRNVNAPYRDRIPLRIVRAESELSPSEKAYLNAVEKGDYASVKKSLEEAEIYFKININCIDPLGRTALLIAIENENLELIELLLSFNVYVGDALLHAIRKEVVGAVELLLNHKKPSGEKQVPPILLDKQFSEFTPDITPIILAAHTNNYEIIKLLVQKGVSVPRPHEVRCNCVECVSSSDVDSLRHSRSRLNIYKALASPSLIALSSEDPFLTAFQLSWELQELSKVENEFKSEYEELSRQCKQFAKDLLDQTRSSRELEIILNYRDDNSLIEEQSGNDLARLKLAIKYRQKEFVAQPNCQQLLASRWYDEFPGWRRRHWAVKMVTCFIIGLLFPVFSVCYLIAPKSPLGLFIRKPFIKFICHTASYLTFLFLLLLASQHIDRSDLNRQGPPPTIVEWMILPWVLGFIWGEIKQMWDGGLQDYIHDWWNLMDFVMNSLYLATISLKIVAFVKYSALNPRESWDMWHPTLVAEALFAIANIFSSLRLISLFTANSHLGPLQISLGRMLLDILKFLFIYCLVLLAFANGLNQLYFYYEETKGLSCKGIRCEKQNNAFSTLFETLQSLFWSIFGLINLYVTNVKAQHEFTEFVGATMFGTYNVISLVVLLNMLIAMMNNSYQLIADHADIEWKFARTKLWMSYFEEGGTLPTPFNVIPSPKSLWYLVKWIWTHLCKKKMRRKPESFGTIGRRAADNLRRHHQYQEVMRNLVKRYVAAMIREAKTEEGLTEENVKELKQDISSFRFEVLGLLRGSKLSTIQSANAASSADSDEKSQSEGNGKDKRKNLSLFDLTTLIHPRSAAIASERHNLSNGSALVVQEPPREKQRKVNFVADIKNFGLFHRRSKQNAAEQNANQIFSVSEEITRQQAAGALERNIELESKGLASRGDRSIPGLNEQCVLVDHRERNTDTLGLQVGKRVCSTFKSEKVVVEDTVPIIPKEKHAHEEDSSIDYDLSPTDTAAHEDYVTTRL

[14] = THP-1 cell cytotoxicity, dose response, cytotoxicity control for non-replicating M. tuberculosis project (AID 489025); type: functional
Vero [15] = test: cells; type: functional; details: Chlorocebus sabaeus
cells = type: functional
[16] = target: G-protein coupled receptor 55 (Homo sapiens, UniProt Q9Y2T6); test: SAR Analysis of Selective Antagonists of GPR55 using an Image-Based Assay - Set 4. [Related pubchem assays (depositor defined):AID2013, AID2026]; type: functional;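 also: antagonism of response to 5 µM lysophosphatidylinositol agonist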
[17] = target: T3, G-protein coupled receptor 35 (Homo sapiens, UniProt Q9HC97); test: SAR analysis of Antagonists of the GPR35 Receptor using an Image-Based Assay - Set 6. [Related pubchem assays (depositor defined):AID2013, AID2026]; type: functional
[18] = target: T3, G-protein coupled receptor 35; test: SAR analysis of Agonists of the GPR35 Receptor using an Image-Based Assay - Set 4. [Related pubchem assays (depositor defined):AID2013, AID2026]; type: functional
Cannabinoid receptor 1 [19] = target: T4, Cannabinoid receptor 1 (Homo sapiens, UniProt P21554); test: SAR analysis of antagonists of the Cannabinoid Receptor 1 using an Image-Based Assay - Set 4. [Related pubchem assays (depositor defined):AID2013, AID2026]; type: functional
Cannabinoid receptor 2 [20] = target: T5, Cannabinoid receptor 2 (Homo sapiens, UniProt P34972); test: SAR analysis of agonists of the Cannabinoid Receptor 2 using an Image-Based Assay - Set 3. [Related pubchem assays (depositor defined):AID2013, AID2026]; type: functional
Cannabinoid receptor 2 [21] = target: T5, Cannabinoid receptor 2; test: SAR analysis of antagonists of the Cannabinoid Receptor 2 using an Image-Based Assay - Set 3. [Related pubchem assays (depositor defined):AID2013, AID2026]; type: functional
Cannabinoid receptor 1 [22] = target: T4, Cannabinoid receptor 1; test: SAR analysis of agonists of the Cannabinoid Receptor 1 using an Image-Based Assay - Set 4. [Related pubchem assays (depositor defined):AID2013, AID2026]; type: functional
[23] = target: T6, Alkaline phosphatase, tissue-nonspecific isozyme (Homo sapiens, UniProt P05186); test: human TNAP enzyme inhibitors, SAR follow-up, biochemical, luminescent, dose response (AID 1056)
T6 sequence (P05186 whole entry): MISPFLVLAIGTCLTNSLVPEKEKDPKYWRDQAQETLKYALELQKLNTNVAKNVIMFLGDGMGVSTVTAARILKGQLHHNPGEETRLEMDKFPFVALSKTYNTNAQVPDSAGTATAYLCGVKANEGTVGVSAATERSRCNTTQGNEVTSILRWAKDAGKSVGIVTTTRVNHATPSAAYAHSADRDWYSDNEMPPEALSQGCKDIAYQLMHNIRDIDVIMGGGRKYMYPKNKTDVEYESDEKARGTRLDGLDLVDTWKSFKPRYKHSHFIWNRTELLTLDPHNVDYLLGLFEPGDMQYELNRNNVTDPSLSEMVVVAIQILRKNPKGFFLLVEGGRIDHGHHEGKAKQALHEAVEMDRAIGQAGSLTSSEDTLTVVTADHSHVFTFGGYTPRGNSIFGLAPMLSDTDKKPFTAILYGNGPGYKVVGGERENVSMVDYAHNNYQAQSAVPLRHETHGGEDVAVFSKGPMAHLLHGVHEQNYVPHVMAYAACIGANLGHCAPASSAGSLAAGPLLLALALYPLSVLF

[24] = target: Alkaline phosphatase, placental type (Homo sapiens, UniProt P05187); test: PLAP enzyme inhibitors, confirmation, biochemical, luminescence (AID 1512); type: functional
CAAX prenyl protease 2 = CAAX prenyl protease 2 (Saccharomyces cerevisiae S288c, UniProt Q03530); type: biochemical
Chain of CAAX prenyl protease 2 (Q03530 whole entry): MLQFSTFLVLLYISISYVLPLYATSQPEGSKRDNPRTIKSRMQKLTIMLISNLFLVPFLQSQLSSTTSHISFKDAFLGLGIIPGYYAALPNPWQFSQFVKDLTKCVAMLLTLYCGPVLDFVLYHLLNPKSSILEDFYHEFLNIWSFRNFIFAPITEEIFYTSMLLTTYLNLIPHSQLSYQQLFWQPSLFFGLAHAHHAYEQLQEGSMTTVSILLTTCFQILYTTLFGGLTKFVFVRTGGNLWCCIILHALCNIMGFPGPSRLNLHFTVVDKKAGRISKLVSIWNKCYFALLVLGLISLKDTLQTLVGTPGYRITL

T4 sequence (P21554 whole entry): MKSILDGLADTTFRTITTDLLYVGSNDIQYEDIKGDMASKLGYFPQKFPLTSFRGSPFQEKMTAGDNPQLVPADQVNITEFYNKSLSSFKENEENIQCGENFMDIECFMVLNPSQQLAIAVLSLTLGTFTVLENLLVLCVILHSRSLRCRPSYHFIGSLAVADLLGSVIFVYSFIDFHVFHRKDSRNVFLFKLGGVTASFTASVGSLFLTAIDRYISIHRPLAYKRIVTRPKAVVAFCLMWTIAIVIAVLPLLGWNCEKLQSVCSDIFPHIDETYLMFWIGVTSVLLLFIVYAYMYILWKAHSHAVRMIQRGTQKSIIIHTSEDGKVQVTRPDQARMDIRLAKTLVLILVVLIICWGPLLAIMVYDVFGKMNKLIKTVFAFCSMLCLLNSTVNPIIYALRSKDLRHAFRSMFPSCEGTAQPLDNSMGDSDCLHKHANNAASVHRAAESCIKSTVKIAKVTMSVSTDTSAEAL
T5 sequence (P34972 whole entry): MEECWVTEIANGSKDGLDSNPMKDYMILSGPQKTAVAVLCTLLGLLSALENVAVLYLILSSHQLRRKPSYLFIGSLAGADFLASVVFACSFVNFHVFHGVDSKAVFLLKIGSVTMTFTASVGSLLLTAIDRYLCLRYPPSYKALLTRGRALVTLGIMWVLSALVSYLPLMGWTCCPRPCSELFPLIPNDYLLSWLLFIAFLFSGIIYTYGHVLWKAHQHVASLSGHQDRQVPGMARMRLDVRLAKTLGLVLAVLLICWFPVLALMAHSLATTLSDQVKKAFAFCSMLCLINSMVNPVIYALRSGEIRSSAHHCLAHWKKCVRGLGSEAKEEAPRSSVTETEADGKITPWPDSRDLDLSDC
T3 sequence (Q9HC97 whole entry): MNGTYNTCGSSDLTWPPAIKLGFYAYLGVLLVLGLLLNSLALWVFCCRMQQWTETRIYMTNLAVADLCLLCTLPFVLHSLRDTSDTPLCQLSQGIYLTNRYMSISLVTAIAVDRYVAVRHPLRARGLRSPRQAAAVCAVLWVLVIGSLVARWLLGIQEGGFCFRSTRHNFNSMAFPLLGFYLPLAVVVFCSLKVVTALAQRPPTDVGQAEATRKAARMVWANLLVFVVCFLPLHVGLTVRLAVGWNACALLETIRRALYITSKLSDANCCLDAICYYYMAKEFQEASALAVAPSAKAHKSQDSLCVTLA
Chain of NACHT, LRR and PYD domains-containing protein 3 (Q96P20 whole entry, the tested form may be a part): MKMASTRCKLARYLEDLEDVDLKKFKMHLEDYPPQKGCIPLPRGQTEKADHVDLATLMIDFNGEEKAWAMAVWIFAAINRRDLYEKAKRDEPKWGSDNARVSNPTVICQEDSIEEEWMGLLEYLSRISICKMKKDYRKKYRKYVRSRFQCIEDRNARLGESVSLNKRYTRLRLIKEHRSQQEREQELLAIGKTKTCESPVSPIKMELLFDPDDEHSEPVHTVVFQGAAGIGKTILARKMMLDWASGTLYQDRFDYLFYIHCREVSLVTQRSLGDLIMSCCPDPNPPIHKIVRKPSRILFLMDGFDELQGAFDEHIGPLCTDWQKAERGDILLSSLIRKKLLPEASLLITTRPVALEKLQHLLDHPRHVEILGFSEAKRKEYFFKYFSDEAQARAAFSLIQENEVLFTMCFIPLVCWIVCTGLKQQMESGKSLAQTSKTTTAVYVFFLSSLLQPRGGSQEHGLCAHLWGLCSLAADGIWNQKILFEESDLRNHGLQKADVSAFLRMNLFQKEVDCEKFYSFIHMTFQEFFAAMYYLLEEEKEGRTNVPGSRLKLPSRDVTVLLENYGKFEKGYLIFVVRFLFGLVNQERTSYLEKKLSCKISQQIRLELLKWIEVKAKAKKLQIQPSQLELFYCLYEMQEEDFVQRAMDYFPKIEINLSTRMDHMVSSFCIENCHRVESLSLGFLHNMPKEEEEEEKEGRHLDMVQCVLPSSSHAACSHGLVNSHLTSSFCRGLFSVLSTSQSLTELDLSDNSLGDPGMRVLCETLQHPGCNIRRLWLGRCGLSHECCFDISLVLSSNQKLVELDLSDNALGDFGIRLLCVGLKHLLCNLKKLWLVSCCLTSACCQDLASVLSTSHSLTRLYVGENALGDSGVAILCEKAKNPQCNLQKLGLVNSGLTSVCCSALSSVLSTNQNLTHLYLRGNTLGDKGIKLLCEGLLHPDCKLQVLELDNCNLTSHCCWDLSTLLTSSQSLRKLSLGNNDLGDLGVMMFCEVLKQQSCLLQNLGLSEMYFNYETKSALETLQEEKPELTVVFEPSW
Chain of G-protein coupled receptor 55 (Q9Y2T6 whole entry): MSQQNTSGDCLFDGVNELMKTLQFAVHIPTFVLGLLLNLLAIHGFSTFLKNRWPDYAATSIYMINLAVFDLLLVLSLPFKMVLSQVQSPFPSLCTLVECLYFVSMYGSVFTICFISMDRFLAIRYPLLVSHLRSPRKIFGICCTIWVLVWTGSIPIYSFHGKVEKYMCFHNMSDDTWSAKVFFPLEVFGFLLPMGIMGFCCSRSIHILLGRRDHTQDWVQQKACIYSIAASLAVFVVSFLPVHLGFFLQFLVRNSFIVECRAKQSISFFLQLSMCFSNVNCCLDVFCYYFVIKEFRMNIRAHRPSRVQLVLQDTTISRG
Chain of Alkaline phosphatase, placental type (P05187 whole entry): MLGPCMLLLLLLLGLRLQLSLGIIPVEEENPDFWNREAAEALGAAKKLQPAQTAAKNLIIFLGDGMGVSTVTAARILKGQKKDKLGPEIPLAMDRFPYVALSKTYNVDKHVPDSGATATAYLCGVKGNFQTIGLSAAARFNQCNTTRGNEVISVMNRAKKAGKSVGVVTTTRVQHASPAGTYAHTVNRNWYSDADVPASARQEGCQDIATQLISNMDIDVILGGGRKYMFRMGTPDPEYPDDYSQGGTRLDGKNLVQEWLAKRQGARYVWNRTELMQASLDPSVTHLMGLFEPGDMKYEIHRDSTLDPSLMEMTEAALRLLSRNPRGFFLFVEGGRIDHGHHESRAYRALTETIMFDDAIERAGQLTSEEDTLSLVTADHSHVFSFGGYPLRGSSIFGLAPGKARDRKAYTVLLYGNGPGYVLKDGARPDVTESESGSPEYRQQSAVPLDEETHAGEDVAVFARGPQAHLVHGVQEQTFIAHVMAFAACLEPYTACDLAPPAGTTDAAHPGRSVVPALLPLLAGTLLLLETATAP
Chain of Neurotensin receptor type 1 (P30989 whole entry): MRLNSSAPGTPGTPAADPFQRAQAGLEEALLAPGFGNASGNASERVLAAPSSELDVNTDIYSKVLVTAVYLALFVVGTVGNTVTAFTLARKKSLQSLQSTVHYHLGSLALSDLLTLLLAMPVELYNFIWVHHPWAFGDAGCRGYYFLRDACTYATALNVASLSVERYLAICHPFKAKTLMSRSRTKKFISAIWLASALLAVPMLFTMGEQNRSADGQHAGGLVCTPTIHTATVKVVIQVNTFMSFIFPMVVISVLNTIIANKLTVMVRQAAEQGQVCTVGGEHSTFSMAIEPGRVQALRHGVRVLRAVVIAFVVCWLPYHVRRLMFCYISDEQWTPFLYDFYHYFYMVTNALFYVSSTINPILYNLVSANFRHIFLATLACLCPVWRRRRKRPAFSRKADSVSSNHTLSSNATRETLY

CCOC(=O)c1ccc2c(c1)nc(COc1ccc(OC)cc1)n2CC
IC50 [1]: > 100 µM (inactive)

Cc1cc(C)cc(Nc2nc(-c3ccc(S(=O)(=O)N4CCCC4)cc3)cs2)c1
AC50 [2]: > 350 µM (inactive)

Cc1cccc(OCc2n(C)c3ccccc3[n+]2CC(=O)OC2CC(C)CCC2C(C)C)c1 (configuration not stated)
EC50 [3]: 0.565 µM (active) | EC50 [4]: > 60 µM (not active) | EC50 [5]: 8.85 µM (active) | CC50 [6]: 18.8 µM (active) | IC50 [7]: > 20 µM (inactive) | AC50 [8]: 3.49 µM (active) | EC50 [9]: 11.2 µM (inconclusive) | AC50 (INS1): 3.61 µM (active) | EC50 [10]: 0.736 µM (active)

CCCOc1ccc(C(=O)NNC(=S)NC(=O)c2cccs2)cc1
IC50 (Vero [11]): > 25 µM (active) | IC50 [1]: 8.96 µM (active) | CC50 [12]: 6.29 µM (active) | EC50 [9]: 18.5 µM (active) | EC50 [13]: 3.76 µM (active) | CC50 [14]: 5.22 µM (active) | CC50 (Vero [15]): 15.6 µM (active) | IC50 (cells): 0.5 µM (active) | EC50 [10]: 0.391 µM (active)

O=C(N1CCC(n2nc(-c3ccccc3)oc2=O)CC1)C1(c2ccccc2)CC1
IC50 [16]: 17.4 µM (inactive) | IC50 [17]: > 32 µM (inactive) | EC50 [18]: > 32 µM (inactive) | IC50 (Cannabinoid receptor 1 [19]): 8.64 µM (active) | EC50 (Cannabinoid receptor 2 [20]): > 32 µM (inactive) | IC50 (Cannabinoid receptor 2 [21]): > 32 µM (inactive) | EC50 (Cannabinoid receptor 1 [22]): > 32 µM (inactive)

CCN(CC)c1ccc(C(=O)CSc2nc(C)cc(C)n2)cc1
IC50 [23]: > 100 µM (inactive) | IC50 [24]: > 100 µM (inactive)

Cc1ccc(-c2nnc(C)c3nn(-c4ccccc4)cc23)cc1
IC50 [16]: > 32 µM (inactive) | IC50 [17]: > 32 µM (inactive) | EC50 [18]: > 32 µM (inactive) | IC50 (Cannabinoid receptor 1 [19]): 4.61 µM (active) | EC50 (Cannabinoid receptor 2 [20]): > 32 µM (inactive) | IC50 (Cannabinoid receptor 2 [21]): > 32 µM (inactive) | EC50 (Cannabinoid receptor 1 [22]): > 32 µM (inactive)

O=C(O)CNc1ccccc1C(=O)O
AC50 (CAAX prenyl protease 2): 11.3 µM (active)
